The target in the experiment is T1, GCase (Homo sapiens, UniProt P04062).
T1 construct: endogenous in cells; host or cells: HeLa cells
T1 sequence (P04062 40-536): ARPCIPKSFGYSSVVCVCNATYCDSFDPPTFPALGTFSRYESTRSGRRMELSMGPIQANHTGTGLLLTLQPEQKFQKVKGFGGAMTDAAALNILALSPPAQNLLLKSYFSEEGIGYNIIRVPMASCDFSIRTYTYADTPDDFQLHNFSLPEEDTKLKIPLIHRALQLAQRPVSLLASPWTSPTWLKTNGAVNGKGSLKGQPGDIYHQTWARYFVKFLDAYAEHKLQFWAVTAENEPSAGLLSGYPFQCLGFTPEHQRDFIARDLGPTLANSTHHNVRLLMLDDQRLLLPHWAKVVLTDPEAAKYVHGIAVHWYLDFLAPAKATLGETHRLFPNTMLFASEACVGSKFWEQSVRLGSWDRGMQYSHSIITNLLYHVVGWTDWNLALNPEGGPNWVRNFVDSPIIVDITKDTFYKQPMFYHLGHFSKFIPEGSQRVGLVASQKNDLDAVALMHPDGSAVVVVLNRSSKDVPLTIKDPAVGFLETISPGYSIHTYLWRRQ
Description: activation of GCase in a live cell PFB assay in HELA cells. The class given is cell-based.
As to `FC(F)Cn1ncc2ncc(N3CCC(COc4ccncc4C(F)(F)F)CC3)nc21` [Compound 308, 1-(2,2-Difluoroethyl)-6-(4-(((3-(trifluoromethyl)pyridin-4-yl)oxy)methyl)piperidin-1-yl)-1H-pyrazolo[3,4-b]pyrazine], the EC50 was < 10 µM.
The result for `COc1ccc(OCC2CCN(CC(=O)Nc3cn(C)nc3C)CC2)cc1` [Compound 479] reads 10 to 50 µM; that for `Cn1c(-c2ccc(F)cc2)nc2nc(C(=O)N3C[C@@H]4[C@@H](COc5cccnc5C(F)(F)F)[C@@H]4C3)cnc21` [Compound 223], > 100 µM; that for `C[C@H](Oc1cccnc1C(F)(F)F)[C@H]1CCCN(c2cncc(-c3nncs3)n2)C1` [Compound 45a, 2-(6-((S)-3-((S)-1-((2-(Trifluoromethyl)pyridin-3-yl)oxy)ethyl)piperidin-1-yl)pyrazin-2-yl)-1,3,4-thiadiazole], < 10 µM.
With `COc1ccc(OCC2CCN(C(=O)c3cccc(C#CC(C)(C)O)c3)CC2)cc1` [Compound 420], the EC50 fell in the range of 10 to 50 µM.
`O=C(c1nnc(C2(c3ccccc3)CCCC2)o1)N1CCCC(COc2ccccc2)C1` (stereo not shown) [Compound 3, (3-(phenoxymethyl)piperidin-1-yl)(5-(1-phenylcyclopentyl)-1,3,4-oxadiazol-2-yl)methanone] gave an EC50 of 10 to 50 µM.
With `O=C(N1CCCC(COc2ccccc2)C1)C1(c2nnc(-c3ccccc3)o2)CCOCC1` (stereo not shown) [Compound 46, (3-(Phenoxymethyl)piperidin-1-yl)(4-(5-phenyl-1,3,4-oxadiazol-2-yl)tetrahydro-2H-pyran-4-yl)methanone], the EC50 is 10 to 50 µM.
The result for `Cn1c(-c2ccccc2)cc2nc(C(=O)N3CCCC(COc4cccnc4C(F)(F)F)C3)cnc21` (stereo not shown) [Compound 68, (5-methyl-6-phenyl-5H-pyrrolo[2,3-b]pyrazin-2-yl)(3-(((2-(trifluoromethyl)pyridin-3-yl)oxy)methyl)piperidin-1-yl)methanone] reads 10 to 50 µM; that for `Cn1c(-c2ccc(F)cc2)nc2ncc(C(=O)N3CCCC(COc4cccnc4C(F)(F)F)C3)nc21` (stereo not shown) [Compound 96, (2-(4-Fluorophenyl)-1-methyl-1H-imidazo[4,5-b]pyrazin-6-yl)(3-(((2-(trifluoromethyl)pyridin-3-yl)oxy)methyl)piperidin-1-yl)methanone], 10 to 50 µM; that for `Cc1ccccc1CCC1CCCN(C(=O)c2cnn(-c3ccccc3)n2)C1` (stereo not shown) [Compound 15, (3-(2-methylphenethyl)piperidin-1-yl)(2-phenyl-2H-1,2,3-triazol-4-yl)methanone], 10 to 50 µM.
Consider `Cc1ccccc1OCC1CCCN(C(=O)c2cnn3c(-c4ccccc4C#N)ccc(F)c23)C1` (stereo not shown) [Compound 296, 2-(4-Fluoro-3-(3-((o-tolyloxy)methyl)piperidine-1-carbonyl)pyrazolo[1,5-a]pyridin-7-yl)benzonitrile], for which the EC50 was < 10 µM.
The compound `O=C(c1cnn(-c2ccc(Cl)cc2)n1)N1CCCC(COc2ccccc2)C1` (stereo not shown) [Compound 147] had an EC50 of 10 to 50 µM.
The figure for `COc1ccc(OCC2CCN(C(=O)Cc3ccccn3)CC2)cc1` [Compound 466] is > 100 µM; for `C[C@@H]1CC[C@H](COc2cccnc2C(F)(F)F)CN1c1cnc2cnn(CC(F)F)c2n1` [Compound 80, 1-(2,2-Difluoroethyl)-6-((2R,5S)-2-methyl-5-(((2-(trifluoromethyl)pyridin-3-yl)oxy)methyl)piperidin-1-yl)-1H-pyrazolo[3,4-b]pyrazine] it is < 10 µM.
The result for `C[C@@H]1CC[C@H](COc2cnccc2C(F)(F)F)CN1c1cnc2cnn(CC(F)F)c2n1` [Compound 274, 1-(2,2-Difluoroethyl)-6-((2R,5S)-2-methyl-5-(((4-(trifluoromethyl)pyridin-3-yl)oxy)methyl)piperidin-1-yl)-1H-pyrazolo[3,4-b]pyrazine] reads < 10 µM; that for `CCc1nc(CN2CCC(COc3ccc(OC)cc3)CC2)no1` [Compound 470], > 100 µM.

As usually defined, the EC50 is the concentration at which the effect is half-maximal. Low readings indicate higher potency in that assay, high ones lower potency in that assay.

The values above are taken from US20240262832A1, “SMALL MOLECULE MODULATORS OF GLUCOCEREBROSIDASE ACTIVITY AND USES THEREOF” (Vanqua Bio, Inc., priority 2021, published 2024).
